Tests used:
liver fibrosis = assay: Carbon tetrachloride liver fibrosis mouse model (hydroxyproline analysis); type: in vivo; details: D30, versus carbon tetrachloride mice without intervention
Protocol: In order to determine if PLCs have a beneficial effect in treating liver fibrosis, fibrosis was initiated with 3× weekly application of 0.1 mL/kg injection of carbon tetrachloride diluted in corn oil for 2 weeks; control mice received corn oil itself for those 2 weeks. Carbon tetrachloride applications continued throughout the next step. Mice that received carbon tetrachloride were separated into 3 cohorts at the two-week mark: • 1. Plasmalyte application on D15, 22, 29 (Carbon Tet mice) • 2. rHGF diluted to 30 ug/mL in plasmalyte and dosed daily at 0.3 mg/kg (Peprotech HGF 100-39H-1 mg) • 3. PLC applications of ˜3e10 Platelet Equivalency Units (PEUs)/kg per mouse on D15, 22, 29. D15 was 5e10, D22 was 3e10, D29 was 5e10.
All mice were sacrificed on D30, livers were excised, and fresh frozen for ˜2-3 hours. Hydroxyproline analysis was done using a hydroxyproline kit (Abcam #ab222941).
Briefly, livers were trimmed, weighed, and the homogenized in DI water at ˜10 uL water/mg of liver with a Dounce homogenizer. The equivalent of 10 mg (˜100 uL) were removed and digested in equal volume 10N NaOH for 2 hours at 120° C. Samples were cooled and quenched with 100 uL 10N HCl, vortexed, and then spun in a centrifuge for 5 mins at 10,000×g. […] Samples were then processed as the manufacturer directed and analyzed with a plate reader. […]

[1] = In vivo localization of PLCs/HGF-ePLCs in fibrotic mice; parameters: species or system Immune-deficient mice (NSG); details: 30 mins after treatment
Protocol: Immune-deficient mice (NSG) were dosed with 0.25 mL/kg of carbon tetrachloride 3 times per week for 2 weeks to initiate liver fibrosis. Control mice were treated with similar volumes of corn oil. On D15, fibrotic mice were treated with the following: Plasmalyte, recombinant HGF (Peprotech Cat #100-39H-1 mg), PLCs that had been generated the previous day and diluted in plasmalyte, or HGF-ePLCs that had been generated the previous day and diluted in plasmalyte. Treatments were allowed to circulate for 30 mins and then mice were sacrificed, exsanguinated, and livers were prepared and frozen for analysis.
FIG. 32B examines circulating PLCs in blood. Blood from PLC or ePLC treatment mice was analyzed via flow cytometry with a human-specific CD61 antibody (Miltenyi Cat #130-110-754) as an indicator of circulating PLCs/ePLCs. […] In FIG. 32C, fluorescence staining of livers removed from treated fibrotic mice for HGF were performed. Livers were embedded in OCT, sectioned, and mounted on slides. Sections were then fixed in ice-cold Acetone for 10 mins and dried for an additional 20 mins. […] The results shown in FIG. 32D show fluorescence staining of livers removed from treated fibrotic mice for CD61. […]

With “HGF: recombinant HGF (Peprotech HGF 100-39H-1 mg)” the “collagen per weight of liver” value (liver fibrosis) was “apparent reduction of collagen per weight of liver” and the “HGF signal in liver (fluorescence staining)” value [1] was “increase HGF signal”.

Reference: patent publication US20220143095A1, “NOVEL ANUCLEATED CELLS AND USES THEREOF” (Platelet Biogenesis, Inc., priority 2020, published 2022)
